Test results published in US8048879B2, “Substituted 4,5,6,7-tetrahydro-isoxazolo[4,5-c]pyridine compounds and use thereof for producing medicaments” (Gruenenthal GmbH, priority 2005, dated 2011).

Target: T1, 5-HT transporter (Rattus norvegicus, UniProt P31652)
T1 construct: from tissue; host or cells: rat brain (medulla and pons), synaptosomes, P2 fraction
Test: 5-HT uptake inhibition, synaptosomes from rat brain (medulla and pons)
Type: biochemical
Description: b) Method for Determining Noradrenalin and 5-HT Uptake Inhibition:
Synaptosomes from rat brain regions are freshly isolated for in vitro studies, as described in the publication “The isolation of nerve endings from brain” by E. G. Gray and V. P. Whittaker, J. Anatomy 96, pages 79-88, 1962. The corresponding literature description is hereby introduced as a reference and is deemed to be part of the disclosure.
The tissue (hypothalamus for the determination of noradrenalin uptake inhibition and medulla and pons for the determination of 5-HT uptake inhibition) is homogenised in ice-cooled 0.32 M sucrose (100 mg of tissue/1 mL) in a glass homogeniser with Teflon pestle using five complete up and down strokes at 840 revolutions/minute.
The homogenate is centrifuged at 4° C. for 10 minutes at 1000 g. After subsequent centrifugation at 17000 g for 55 minutes, the synaptosomes (P2 fraction) are obtained, which are resuspended in 0.32 M […] (0.5 mL/100 mg of original weight).
The particular uptake is measured in a 96-well microtitre plate. The volume is 250 μL and the incubation proceeds at room temperature (approx. 20-25° C.) under an O2 atmosphere.
The incubation time is 7.5 minutes for [^3H]-NA and 5 minutes for [^3H]-5-HT. The 96 samples are then filtered through a Unifilter GF/B® microtitre plate (Packard) and washed with 200 mL of incubated buffer using a “Brabdel MPXRI-96T Cell-Harvester”. The Unifilter GF/B plate is dried for 1 hour at 55° C. The plate is then sealed with a Back Seal® (Packard) and 35 μL of scintillation fluid are added per well (Ultima Gold®, Packard). After sealing with a top Seal® (Packard) and establishing an equilibrium (around 5 hours), radioactivity is determined in a “Trilux 1450 Microbeta” (Wallac).
The quantity of protein used in the above determination corresponds to the values known from the literature, as for example described in “Protein measurement with the folin phenol reagent”, Lowry et al., J. Biol. Chem., 193, 265-275, 1951.
A detailed description of the method may additionally be found in the literature, for example in M. Ch. Frink, H.-H. Hennies, W. Engelberger, M. Haurand and B. Wilffert (1996) Arzneim.-Forsch./Drug Res. 46 (III), 11, 1029-1036.
The following characteristics were determined for the NA or 5-HT transporter: […]

T1 sequence (P31652 whole entry): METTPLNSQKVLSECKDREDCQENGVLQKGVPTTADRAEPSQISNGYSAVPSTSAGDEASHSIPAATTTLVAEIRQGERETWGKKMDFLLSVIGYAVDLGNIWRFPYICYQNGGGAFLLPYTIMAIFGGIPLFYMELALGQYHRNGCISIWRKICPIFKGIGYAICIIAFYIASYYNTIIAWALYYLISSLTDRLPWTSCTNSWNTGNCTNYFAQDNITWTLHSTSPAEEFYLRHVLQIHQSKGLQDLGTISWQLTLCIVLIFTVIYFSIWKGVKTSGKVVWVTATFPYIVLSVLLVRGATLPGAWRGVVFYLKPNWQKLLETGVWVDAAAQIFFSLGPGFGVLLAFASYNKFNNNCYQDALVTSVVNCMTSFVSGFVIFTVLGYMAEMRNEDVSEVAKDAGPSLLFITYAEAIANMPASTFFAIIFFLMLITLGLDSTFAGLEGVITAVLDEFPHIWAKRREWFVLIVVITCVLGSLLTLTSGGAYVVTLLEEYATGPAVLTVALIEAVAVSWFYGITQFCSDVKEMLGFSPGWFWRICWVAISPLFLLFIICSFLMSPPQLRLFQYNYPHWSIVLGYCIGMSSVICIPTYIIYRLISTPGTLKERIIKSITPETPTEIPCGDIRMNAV

Going from `COCCNC(=O)c1noc2c1CN(C(=O)Nc1cccc(OC)c1)CC2` [Example 1, 6,7-dihydro-4H-isoxazolo[4,5-c]pyridine-3,5-dicarboxylic acid 3-[(2-methoxy-ethyl) amide] 5-[(3-methoxyphenyl) amide]] to `CCSCCNC(=O)c1noc2c1CN(C(=O)Nc1cccc(OC)c1)CC2` [Example 11, 6,7-dihydro-4H-isoxazolo[4,5-c]pyridine-3,5-dicarboxylic acid 3-[(2-ethylsulfanyl-ethyl) amide]5-[(3-methoxyphenyl) amide]], the “5-HT uptake (rat), 10 μM, % inhibition” value rises from 47% to 54%.

Compared with `O=C(NC1CCCC1)c1noc2c1CN(C(=O)NCc1ccc(F)cc1)CC2` [Example 2, 6,7-dihydro-4H-isoxazolo[4,5-c]pyridine-3,5-dicarboxylic acid 3-cyclopentyl amide 5-(4-fluorobenzyl amide)], `CCOc1ccc(NC(=O)N2CCc3onc(C(=O)NCc4ccc(F)cc4)c3C2)cc1` [Example 21, 6,7-dihydro-4H-isoxazolo[4,5-c]pyridine-3,5-dicarboxylic acid 5-[(4-ethoxy-phenyl) amide] 3-(4-fluorobenzyl amide)] is higher in “5-HT uptake (rat), 10 μM, % inhibition” value: 41% for the first, 56% for the second.

Compared with `O=C(Nc1ccccc1)c1noc2c1CN(C(=O)Nc1ccc(OC(F)(F)F)cc1)CC2` [Example 3, 6,7-dihydro-4H-isoxazolo[4,5-c]pyridine-3,5-dicarboxylic acid 3-phenyl amide 5-[(4-trifluoromethoxy-phenyl) amide]], `O=C(NCc1ccccc1)c1noc2c1CN(C(=O)Nc1ccccc1)CC2` [Example 17, 6,7-dihydro-4H-isoxazolo[4,5-c]pyridine-3,5-dicarboxylic acid 3-benzyl amide 5-phenyl amide] is higher in “5-HT uptake (rat), 10 μM, % inhibition” value: 45% for the first, 64% for the second.

Going from `COCCNC(=O)c1noc2c1CN(C(=O)Nc1ccc(C)c([N+](=O)[O-])c1)CC2` [Example 5, 6,7-dihydro-4H-isoxazolo[4,5-c]pyridine-3,5-dicarboxylic acid 3-[(2-methoxy-ethyl) amide]5-[(4-methyl-3-nitro-phenyl) amide]] to `C#CCNC(=O)c1noc2c1CN(C(=O)Nc1ccc(C)c([N+](=O)[O-])c1)CC2` [Example 16, 6,7-dihydro-4H-isoxazolo[4,5-c]pyridine-3,5-dicarboxylic acid 5-[(4-methyl-3-nitro-phenyl) amide]3-prop-2-ynyl amide], the “5-HT uptake (rat), 10 μM, % inhibition” value rises from 47% to 55%.

Going from `CCOC(=O)CCNC(=O)c1noc2c1CN(C(=O)Nc1cc(F)ccc1F)CC2` [Example 6] to `C#CCNC(=O)c1noc2c1CN(C(=O)Nc1cccc(F)c1)CC2` [Example 19, 6,7-dihydro-4H-isoxazolo[4,5-c]pyridine-3,5-dicarboxylic acid 5-[(3-fluorophenyl) amide] 3-prop-2-ynyl amide], the “5-HT uptake (rat), 10 μM, % inhibition” value rises from 43% to 50%.

Going from `CCCCOc1ccc(NC(=O)N2CCc3onc(C(=O)NCCOC)c3C2)cc1` [Example 7, 6,7-dihydro-4H-isoxazolo[4,5-c]pyridine-3,5-dicarboxylic acid 5-[(4-butoxy-phenyl) amide] 3-[(2-methoxy-ethyl) amide]] to `CCOC(=O)c1cccc(NC(=O)N2CCc3onc(C(=O)NCc4ccc(C)o4)c3C2)c1` [Example 23, 3-({3-[(5-methyl-furan-2-ylmethyl)-carbamoyl]-6,7-dihydro-4H-isoxazolo[4 5-c]pyridine-5-carbonyl}-amino)-benzoic acid ethyl ester], the “5-HT uptake (rat), 10 μM, % inhibition” value rises from 44% to 52%.

First: Cc1ccc(NC(=O)N2CCc3onc(C(=O)NCc4cccs4)c3C2)cc1[N+](=O)[O-] [Example 9, 6,7-dihydro-4H-isoxazolo[4,5-c]pyridine-3,5-dicarboxylic acid 5-[(4-methyl-3-nitro-phenyl) amide] 3-[(thiophen-2-ylmethyl) amide]]
Second: Cc1ccc(NC(=O)N2CCc3onc(C(=O)NCc4ccc(F)cc4)c3C2)cc1[N+](=O)[O-] [Example 14, 6,7-dihydro-4H-isoxazolo[4,5-c]pyridine-3,5-dicarboxylic acid 3-(4-fluorobenzyl amide) 5-[(4-methyl-3-nitro-phenyl) amide]]
The “5-HT uptake (rat), 10 μM, % inhibition” value of the first is lower: 45% for the first, 53% for the second.

Compared with `CC(=O)c1cccc(NC(=O)N2CCc3onc(C(=O)NCc4ccc(C)o4)c3C2)c1` [Example 15, 6,7-dihydro-4H-isoxazolo[4,5-c]pyridine-3,5-dicarboxylic acid 5-[(3-acetyl-phenyl) amide] 3-[(5-methyl-furan-2-ylmethyl) amide]], `COc1ccc(Cl)cc1NC(=O)N1CCc2onc(C(=O)NCCc3ccccc3)c2C1` [Example 22, 6,7-dihydro-4H-isoxazolo[4,5-c]pyridine-3,5-dicarboxylic acid 5-[(5-chloro-2-methoxyphenyl) amide] 3-(phenethyl amide)] is higher in “5-HT uptake (rat), 10 μM, % inhibition” value: 58% for the first, 60% for the second.

`O=C(c1noc2c1CN(S(=O)(=O)c1ccc(F)cc1)CC2)N1CCN(c2ncnc3sccc23)CC1` [Example 34] was tested, and the “5-HT uptake (rat), 10 μM, % inhibition” value was 74%.

Compared with `CCOC(=O)CCNC(=O)c1noc2c1CN(C(=O)Nc1cc(OC)ccc1OC)CC2` [Example 20, 3-{[5-(2,5-dimethoxy-phenylcarbamoyl)-4,5,6,7-tetrahydro-isoxazolo[4,5-c]pyridine-3-carbonyl]-amino}-propionic acid ethyl ester], `Cc1ccc(CNC(=O)c2noc3c2CN(C(=O)C(C)(C)CC(=O)O)CC3)o1` [Example 31, 3,3-dimethyl-4-{3-[(5-methyl-furan-2-ylmethyl)-carbamoyl]-6,7-dihydro-4H-isoxazolo[4,5-c]pyridin-5-yl}-4-oxo-butanoic acid] is higher in inhibition at 10 µM: 51% for the first, 57% for the second.

Compared with `CCC(C)(CC(=O)O)CC(=O)N1CCc2onc(C(=O)NCCOC)c2C1` (stereo not shown) [Example 26, 3-ethyl-5-[3-(2-methoxy-ethylcarbamoyl)-6,7-dihydro-4H-isoxazolo[4,5-c]pyridin-5-yl]-3-methyl-5-oxo-pentanoic acid], `O=C(O)COCC(=O)N1CCc2onc(C(=O)NCc3cccs3)c2C1` [Example 30, (2-oxo-2-{3-[(thiophen-2-ylmethyl)-carbamoyl]-6,7-dihydro-4H-isoxazolo[4,5-c]pyridin-5-yl}-ethoxy)acetic acid] is higher in inhibition at 10 µM: 54% for the first, 57% for the second.

Going from `CC(C)(C)OC(=O)NC(COCc1ccccc1)C(=O)N1CCc2onc(C(=O)NCc3cccnc3)c2C1` (stereo not shown) [Example 27, (1-benzyloxymethyl-2-oxo-2-{3-[(pyridin-3-ylmethyl)-carbamoyl]-6,7-dihydro-4H-isoxazolo[4,5-c]pyridin-5-yl}-ethyl)-carbamic acid tert-butyl ester] to `Cc1nn(-c2ccccc2)nc1C(=O)N1CCc2onc(C(=O)NCc3cccnc3)c2C1` [Example 46, 5-(5-methyl-2-phenyl-2H-[1,2,3]triazole-4-carbonyl)-4,5,6,7-tetrahydro-isoxazolo[4,5-c]pyridine-3-carboxylic acid (pyridin-3-ylmethyl) amide], the inhibition at 10 µM rises from 41% to 79%.

First: CN(C)CCNC(=O)c1noc2c1CN(C(=O)C=Cc1ccccc1)CC2 [Example 36, 5-(3-phenyl-acryloyl)-4,5,6,7-tetrahydro-isoxazolo[4,5-c]pyridine-3-carboxylic acid (2-dimethylamino-ethyl) amide]
Second: CN(C)CCNC(=O)c1noc2c1CN(C(=O)COc1ccccc1)CC2 [Example 37, 5-(2-phenoxy-acetyl)-4,5,6,7-tetrahydro-isoxazolo[4,5-c]pyridine-3-carboxylic acid (2-dimethylamino-ethyl) amide]
The inhibition at 10 µM of the first is higher: 72% for the first, 61% for the second.

First: CN(C)CCNC(=O)c1noc2c1CN(C(=O)c1cc(C(C)(C)C)nn1C)CC2 [Example 41, 5-(5-tert-butyl-2-methyl-2H-pyrazole-3-carbonyl)-4,5,6,7-tetrahydro-isoxazolo[4,5-c]pyridine-3-carboxylic acid (2-dimethylamino-ethyl) amide]
Second: CC(=O)Nc1ccc(C(=O)N2CCc3onc(C(=O)NCC4CC4)c3C2)cc1 [Example 45, 5-(4-acetylamino-benzoyl)-4,5,6,7-tetrahydro-isoxazolo[4,5-c]pyridine-3-carboxylic acid cyclopropylmethyl amide]
The inhibition at 10 µM of the first is lower: 76% for the first, 85% for the second.

`O=C(c1noc2c1CN(S(=O)(=O)c1ccc(F)cc1)CC2)N1CC=C(c2ccc(F)cc2)CC1` [Example 42, [5-(4-fluoro-benzenesulfonyl)-4,5,6,7-tetrahydro-isoxazolo[4,5-c]pyridin-3-yl]-[4-(4-fluorophenyl)-3,6-dihydro-2H-pyridin-1-yl]-methanone] gave an inhibition at 10 µM of 69%.
